Test results taken from PMC10061639 (ACS Omega, 2023).
Values after ≈ are worked out from the molar mass of the structure shown. One block for each compound: values may come before it.

How the values were obtained:
[1] = Experimental saturated solubility of ENO in excipients; type: physicochemical; settings: thermodynamic from solid
[2] = cited from earlier work
[3] = Hansen solubility parameters estimated with HSPiP program; settings: HSP parameters of ENE5 based on composition
[4] = cited from earlier work; remark: listed apart in the source

solubility at 72 h ([1]; C90, 40 °C): 2800 µg/mL (≈ 8.74 mM) | solubility at 72 h ([1]; Miglyol 812N, 40 °C, oil or lipid): 5400 µg/mL (≈ 16.9 mM) | solubility at 72 h ([1]; NMP (N-methyl-2-pyrrolidone), 40 °C): 6700 µg/mL (≈ 20.9 mM) | solubility at 72 h ([1]; Tween 80, 40 °C): 1500 µg/mL (≈ 4.68 mM)
SMILES: CCn1cc(C(=O)O)c(=O)c2cc(F)c(N3CCNCC3)nc21 [ENO, Enoxacin]
aqueous solubility ([2]; an experimental value): 0.29 mg/mL (≈ 0.905 mM) | pKa [2]: 5.5

δd, share of the component in ENE5 based on composition [3]: 8.1 | δh, share of the component in ENE5 based on composition [3]: 3.33 | δp, share of the component in ENE5 based on composition [3]: 4.46
SMILES: CN1CCCC1=O [NMP, N-methyl-2-pyrrolidone]

SMILES: CCOCCOCCO [Transcutol-HP]
HLB [4]: 14.5

δd, share of the component in ENE5 based on composition [3]: 2.52 | δh, share of the component in ENE5 based on composition [3]: 1.425 | δp, share of the component in ENE5 based on composition [3]: 0.975
SMILES: CCCCCCCC/C=C\CCCCCCCC(=O)OCCOCC(OCCO)C1OCC(OCCO)C1OCCO (stereo not shown) [Tween 80]
